The values that follow come from patent US7553642B2, “Branched neutral amino acid transporters acting as single molecule” (Human Cell Systems, Inc., priority 2003, dated 2009).

Holding throughout (format): cell-based
In experiment [1] the target is T1, human LAT3 (Homo sapiens, UniProt O75387).
T1 construct: An expression plasmid vector pSPORT1 containing cDNA of human LAT3 was cleaved by a restriction enzyme NotI, and cRNA; expressed in transfected cells; host or cells: Xenopus laevis oocytes injected with cRNA
T1 sequence (O75387 1-559): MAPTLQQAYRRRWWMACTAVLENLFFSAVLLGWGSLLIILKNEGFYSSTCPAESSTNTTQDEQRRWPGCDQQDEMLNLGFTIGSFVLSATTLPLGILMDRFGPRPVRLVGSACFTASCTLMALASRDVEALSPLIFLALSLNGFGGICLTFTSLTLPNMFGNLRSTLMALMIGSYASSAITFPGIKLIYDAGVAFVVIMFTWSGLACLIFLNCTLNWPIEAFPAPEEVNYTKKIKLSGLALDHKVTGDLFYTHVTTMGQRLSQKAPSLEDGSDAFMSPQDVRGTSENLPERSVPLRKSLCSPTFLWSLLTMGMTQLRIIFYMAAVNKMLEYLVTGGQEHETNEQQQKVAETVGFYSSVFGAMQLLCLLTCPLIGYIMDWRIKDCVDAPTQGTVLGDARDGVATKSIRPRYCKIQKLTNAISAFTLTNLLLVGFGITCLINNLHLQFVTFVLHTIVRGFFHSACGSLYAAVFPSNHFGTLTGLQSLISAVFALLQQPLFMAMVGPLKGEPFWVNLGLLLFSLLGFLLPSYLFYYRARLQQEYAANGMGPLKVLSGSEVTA
In words: 14C-leucine efflux from preloaded oocytes injected with human LAT3 cRNA. Conditions: preloaded 100 nl of 400 μM 14C-leucine; absence of extracellular leucine; Na+-free; room temperature. As for the experimental part: The oocytes injected with cRNA of the human LAT3 gene was injected with 100 nl of 400 μM ^14C-leucine (2 nCi). After washing the oocytes with the leucine-free and Na^+-free uptake solution which was previously cooled with ice, the oocytes were transferred to the Na^+-free uptake solution with or without leucine (1 mM) at room temperature (18 to 22° C.), then efflux of ^14C-leucine was measured. As a control, 100 nl of 400 μM ^14C-leucine (2 nCi) was injected into the oocytes injected with water instead of cRNA of the human LAT3 gene, and the extracellular efflux of ^14C-leucine was measured by the same procedures as described above.

In experiment [2] the target is T1, human LAT3. As to the kind of experiment: Uptake of radiolabeled amino acids by Xenopus oocytes injected with human LAT3 cRNA. As for the experimental part: The substrate uptake by the injected oocytes using leucine as a substrate was carried out according to the method described by Kanai et al. (Kanai and Hediger, Nature, Vol. 360, 467-471 (1992)), as follows. The oocytes was cultured for 30 minutes in the Na^+-free uptake solution (100 mM of choline chloride, 2 mM of potassium chloride, 1.8 mM of calcium chloride, 1 mM of magnesium chloride, 5 mM of HEPES, pH 7.4) using ^14C-leucine (100 μM) as a substrate, and uptake rate of the substrate was measured by counting radioactivity in the cell.
The oocytes was injected with 25 ng of human LAT3 gene cRNA to be expressed thereby, and cultured for 3 days.
The experiment of the leucine uptake was carried out as follows according to the above described method in Example 1 (1). That is, the oocytes injected with the cRNA of the human LAT3 gene or water as a control were cultured for 10 minutes in Na^+-free uptake solution containing ^14C-leucine (100 μM) (refer to Example 1 (1)), and measured uptake of radioactivity into the cells.
The leucine uptake was conducted at the leucin concentrations of 1, 3, 10, 30, 60, 100, 200, 400, 1000, 2000 and 3000 μM using the oocytes injected with cRNA of the human LAT3 gene according to the above-described method in Example 3 (1). […] In addition, it was clarified that the leucine transport mediated by LAT3 is composed of high affinity component and low affinity component (FIG. 6, inserted figure).
An uptake experiment of various amino acids and amino acid analogs was carried out using the oocytes injected with cRNA of the human LAT3 gene according to the above-described method in Example 3 (1), provided that various radiolabeled amino acids were utilized in place of the ^14C-leucine.

Experiment [3] has as its target T2, mouse LAT3 (Mus musculus, UniProt Q8BSM7).
T2 construct: expressed in transfected cells; host or cells: Xenopus laevis oocytes injected with cRNA (IMAGE clone 4910149)
In words: Leucine uptake by oocytes injected with mouse LAT3 cRNA. Conditions: 14C-L-leucine, method of Example 3 (1). As for the experimental part: The cDNA of mouse LAT3 obtained by Example 2 was cleaved at NotI site, and cRNA was prepared using SP6 RNA polymerase. The cRNA of the mouse LAT3 gene was expressed in the oocytes and the ^14C-L-leucine uptake was measured.
The oocytes was injected with 25 ng of cRNA of the mouse LAT3 gene to be expressed thereby, and cultured for 3 days. An experiment of the leucine uptake by the oocytes injected with cRNA of the mouse LAT3 gene was carried out according to the method in Example 3 (1).

Experiment [4] concerns the target T3, human LAT4 (Homo sapiens, UniProt Q8N370).
T3 construct: expressed in transfected cells; host or cells: Xenopus laevis oocytes injected with cRNA (IMAGE clone 2783525)
In words: Leucine uptake by oocytes injected with human LAT4 cRNA. Conditions: 14C-L-leucine, method of Example 3 (1). As for the experimental part: The cDNA of human LAT4 gene obtained by Example 4 was cleaved at XhoI site, and the cRNA was prepared using T3 RNA polymerase. The cRNA of the human LAT4 gene was expressed in the oocytes and the ^14C-L-leucine uptake was measured.
The oocytes was injected with 25 ng of cRNA of the human LAT4 gene, and cultured for […]. Experiment of the leucine uptake by the oocytes injected with cRNA of the human LAT4 gene was carried out according to the method of Example 3 (1).

Experiment [5] addresses T4, mouse LAT4 (Mus musculus, UniProt Q8CGA3, K402E/P237S).
T4 construct: An expression plasmid vector pcDNA 3.1(+) containing cDNA of mouse LAT4 was cleaved by a restriction enzyme XbaI; expressed in transfected cells; host or cells: Xenopus laevis oocytes injected with cRNA (from pcDNA3.1(+), IMAGE clone 2235970)
In words: Uptake of radiolabeled amino acids by Xenopus oocytes injected with mouse LAT4 cRNA. The protocol: The oocytes was injected with 25 ng of cRNA of the mouse LAT4 gene to be expressed thereby, and cultured for 3 days.
An experiment of leucine uptake was carried out as follows according to the above-described method in Example 3 (1). That is, the oocytes injected with cRNA of the mouse LAT4 gene or water as a control were cultured for 10 minutes in the Na^+-free uptake solution containing […] (100 μM) (refer to Example 3 (1)), and measured the uptake of radioactivity into the cells.
The leucine uptake was conducted at the leucin concentrations of 0.01, 0.03, 0.1, 0.3, 1, 3 and 10 mM, using the oocytes injected with cRNA of the mouse LAT4 gene according to the above-described method in Example 3 (1). […] In addition, it was clarified that the leucine transport mediated by LAT4 is composed of a high affinity component and a low affinity component, just like the leucin uptake mediated by LAT3.
An uptake experiment of various amino acids and amino acid analogs was carried out using the oocytes injected with cRNA of the mouse LAT4 gene according to the above-described method in Example 3 (1). In this regard, in place of ^14C-leucine, various radiolabeled amino acids were utilized.

The mark [6] stands for this setting: 14C-leucine 100 μM, Na+-free uptake solution, 10 minutes.

T4 sequence (Q8CGA3 whole entry P237S/K402E): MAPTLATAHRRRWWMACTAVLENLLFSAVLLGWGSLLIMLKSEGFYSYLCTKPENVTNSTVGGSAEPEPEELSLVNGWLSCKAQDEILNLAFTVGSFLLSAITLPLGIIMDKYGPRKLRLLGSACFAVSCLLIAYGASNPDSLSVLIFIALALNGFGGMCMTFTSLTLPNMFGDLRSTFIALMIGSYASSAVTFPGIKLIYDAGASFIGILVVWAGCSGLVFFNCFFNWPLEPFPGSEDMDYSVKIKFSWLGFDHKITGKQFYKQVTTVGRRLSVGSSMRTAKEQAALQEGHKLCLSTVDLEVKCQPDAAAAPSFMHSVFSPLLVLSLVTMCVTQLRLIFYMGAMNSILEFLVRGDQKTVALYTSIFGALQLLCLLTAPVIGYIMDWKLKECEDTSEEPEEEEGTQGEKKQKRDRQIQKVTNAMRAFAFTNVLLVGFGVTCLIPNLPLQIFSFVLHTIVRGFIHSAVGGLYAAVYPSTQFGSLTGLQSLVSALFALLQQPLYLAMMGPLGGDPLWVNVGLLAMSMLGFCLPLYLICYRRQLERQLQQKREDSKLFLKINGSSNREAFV
T3 sequence (Q8N370 1-573 isoform Q8N370-3): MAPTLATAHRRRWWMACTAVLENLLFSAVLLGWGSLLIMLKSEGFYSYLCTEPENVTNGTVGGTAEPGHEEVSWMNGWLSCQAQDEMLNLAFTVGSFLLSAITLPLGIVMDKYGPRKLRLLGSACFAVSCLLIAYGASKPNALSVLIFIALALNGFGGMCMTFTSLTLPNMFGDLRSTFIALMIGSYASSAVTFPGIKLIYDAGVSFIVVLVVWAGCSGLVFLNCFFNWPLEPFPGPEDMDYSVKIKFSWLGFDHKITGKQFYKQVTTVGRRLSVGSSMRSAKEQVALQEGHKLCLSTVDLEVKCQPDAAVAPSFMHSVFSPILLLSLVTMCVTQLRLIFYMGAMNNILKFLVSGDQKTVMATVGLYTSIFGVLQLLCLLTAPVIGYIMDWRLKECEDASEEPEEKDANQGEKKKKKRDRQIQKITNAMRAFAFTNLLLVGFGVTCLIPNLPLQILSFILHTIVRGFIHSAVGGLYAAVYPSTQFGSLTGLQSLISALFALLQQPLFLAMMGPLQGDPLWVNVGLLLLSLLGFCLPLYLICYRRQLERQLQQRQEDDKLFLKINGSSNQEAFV
T2 sequence (Q8BSM7 whole entry): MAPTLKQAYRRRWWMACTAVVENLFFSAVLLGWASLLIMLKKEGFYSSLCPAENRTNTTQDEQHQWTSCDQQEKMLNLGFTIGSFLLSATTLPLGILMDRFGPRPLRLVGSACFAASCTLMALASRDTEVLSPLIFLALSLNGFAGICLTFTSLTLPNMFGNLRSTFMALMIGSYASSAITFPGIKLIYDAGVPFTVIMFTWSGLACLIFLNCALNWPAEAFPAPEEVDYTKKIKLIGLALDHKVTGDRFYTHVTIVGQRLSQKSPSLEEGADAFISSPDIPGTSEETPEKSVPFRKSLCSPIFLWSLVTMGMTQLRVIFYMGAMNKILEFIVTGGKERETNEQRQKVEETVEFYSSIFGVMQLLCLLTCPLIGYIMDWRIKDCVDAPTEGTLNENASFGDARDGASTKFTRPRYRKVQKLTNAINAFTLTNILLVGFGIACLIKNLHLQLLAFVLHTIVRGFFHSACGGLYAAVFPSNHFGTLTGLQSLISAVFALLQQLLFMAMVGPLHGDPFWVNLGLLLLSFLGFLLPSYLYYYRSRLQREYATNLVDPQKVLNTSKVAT

As for `CC(C)C[C@H](N)C(=O)O` [L-leucine], the “efflux of 14C-leucine from oocytes expressing human LAT3” value in experiment [1] was “significant efflux”. For the same molecule, the “uptake of radiolabeled substrate into oocytes expressing human LAT3” value in experiment [2] (14C-labeled substrate in place of 14C-leucine, Na+-free uptake solution, 10 minutes) is “a large amount of uptake”. The “leucine uptake in oocytes expressing LAT3 compared with water-injected” value in experiment [2] (setting [6]) is “significant augmentation”. Further, the “concentration dependence of leucine uptake (human LAT3)” value in experiment [2] (leucine 1 to 3000 μM) was “concentration-dependent and saturable”. Besides, in experiment [3], the “leucine uptake in oocytes expressing mouse LAT3 compared with water-injected” value is listed as “significant augmentation”. Further, the “leucine uptake in oocytes expressing human LAT4 compared with water-injected” value in experiment [4] is “significant augmentation”. Besides, the “uptake of radiolabeled substrate into oocytes expressing mouse LAT4” value in experiment [5] (14C-labeled substrate in place of 14C-leucine) is listed as “a large amount of uptake”. Moreover, in experiment [5] (setting [6]), the “leucine uptake in oocytes expressing mouse LAT4 compared with water-injected” value is reported as “significant augmentation”. In addition, in experiment [5] (leucine 0.01 to 10 mM), the “concentration dependence of leucine uptake (mouse LAT4)” value was “concentration-dependent and saturable”.
